According to patent publication US10793509B2, “Compounds useful in the treatment of neoplastic diseases” (UNIVERSITÄT ZU KÖLN, priority 2013, dated 2020):

Columns and labels:
[1] = test system: acute myeloid leukemia cell line SH2; assay: Annexin V/PI assay, SH2; type: cell-based; settings: 24 h
[2] = test system: small cell lung cancer cell line HCC44; assay: Viability assay (ATP content, CellTiter-Glo), HCC44; type: cell-based; settings: Homo sapiens, HCC44, 24 h
Procedure: (§1) In the following experiment the possible therapeutic window for NO-ASA derivatives was investigated. […] The melanoma cell line MelJuso, the colon carcinoma cell line SW480, the small cell lung cancer cell line HCC44, the ovarian adenocarcinoma cell line COLO704 and the acute myeloid leukemia cell line SH2 were treated with concentrations of p-NO-ASA and B9, B12 and B13 in a range between 0.01 μM and 100 μM for 24 h, followed by addition of luminogenic CellTiter-Glo® reagent.
Table accompanying Example 5. Overview of the EC50 values of cell survival analyzed by ATP content and Annexin V/PI assay. n.t.; not tested

caspases 3 and 7 = assay: caspase-3/7 assay in CLL cells; type: cell-based; settings: Homo sapiens, CLL cell, 6 h, 0.01-20 μM, luminogenic caspase-3/7-substrate, read-out: activation of caspases 3 and 7, EC50
Description: FIG. 8 depicts the involvement of caspase-mediated apoptosis in CLL cells upon treatment with p-NO-ASA, B9, B12 and B13. Representative blots of 3 independent experiments are shown. Untreated and DMSO (1%) treated cells served as control. beta-actin=loading control (FIG. 8A). para-NO-ASA and B9 induced a concentration-dependent increase in caspase-3/7-activation (FIG. 8B).
To determine whether the toxicity on CLL cells is due to caspase-mediated apoptosis, the cleavage of PARP (Poly(ADP-ribose)-Polymerase 1) and XIAP (X-linked inhibitor of apoptosis) was analyzed by immunoblot. CLL cells were cultured alone, with 1% DMSO or with EC50 of p-NO-ASA, meta-NO-ASA, B9, B12 and B13 for 24 h followed by protein lysation and western blot analysis using antibodies to detect prognostic apoptotic proteins (XIAP, PARP). […] All compounds tested induced PARP and XIAP cleavage (FIG. 8A). Further a caspase-3/7 assay was carried out. CLL cells were incubated with para-NO-ASA and B9 in different concentrations ranging from 0.01 μM to 20 μM for 6 h followed by addition of luminogenic caspase-3/7-substrate. This indicates the reduction of the survival of CLL cells upon treatment with p-NO-ASA and B9 due to the induction of caspase-mediated apoptosis.

[3] = test system: small cell lung cancer cell line HCC44; assay: Annexin V/PI assay, HCC44; type: cell-based; settings: Homo sapiens, HCC44, 24 h
[4] = test system: SW480, MelJuso, HCC44, SH2 and COLO704 cell lines; type: cell-based; settings: 24 h, 0.01-100 μM
Procedure: as §1

[5] = test system: peripheral blood mononuclear cells (PBMCs) of healthy donors; assay: AnnexinV/PI assay on PBMCs of healthy donors; type: cell-based; settings: Homo sapiens, PBMC; 24 h incubation, 0.01-100 μM, 5*10^6 cells/ml, normalized to DMSO control; read-out: AnnexinV/PI assay EC50 PBMCs
Procedure: PBMCs or CLL cells (5*10^6 cells/ml) were incubated for 24 h with different compounds at concentrations from 0.01 to 100 μM. Cell survival was normalized to DMSO control [vehicle]. See Example 1.
Primary CLL or peripheral blood mononuclear cells of healthy donors (5*10^6/ml) were incubated for 24 h with different compounds according to the invention and NO-ASA as a control. The compounds were added in different concentrations, in particular in concentrations from 0.01-100 μM. Cell survival was assessed by AnnexinV/PI assay (Kit commercially available, e.g. by Biotium Inc, USA; or Phoenix Flow Systems, US), the results were normalized to DMSO control [vehicle] and dose response curves were calculated using a non-linear regression model.

[6] = test system: ovarian adenocarcinoma cell line COLO704; assay: Annexin V/PI assay, COLO704; type: cell-based; settings: COLO 704, 24 h
TP53-mutated CLL cells = assay: FACS analysis of treated CLL cells with TP53 mutation; type: cell-based, human; settings: 24 h, 0.01-100 μM, FIG. 6
Procedure: (§2) Isolated, primary CLL cells were treated for 24 h with the EC50 of the different compounds and the ATP-content was measured by flow cytometry. For each used compound the order of mean EC50 concentrations in the bar chart is from left to right as following: EC50 CLL cells TP53 unmut (unmutated=without mutation), EC50 CLL cells TP53 mut (mutated=with mutation).
(§3) Further, the derivatives B9, B12 and B13 were tested in comparison to para-NO-ASA on CLL cells which harbour a TP53 mutation. The patient subgroup with a TP53 disruption is characterized by a considerable dismal prognosis. CLL cells of patients with and without the TP53 mutation were treated with five different concentrations (0.01, 0.1, 1, 10, 100 μM) of para-NO-ASA, B9, B12 and B13 for 24 h.

[7] = test system: CLL cells without a TP53 mutation; assay: FACS analysis of treated CLL cells without TP53 mutation; type: cell-based, human; settings: 24 h, 0.01-100 μM, FIG. 6
Procedure: as §2, §3

With O=C(Oc1ccc(CO[N+](=O)[O-])cc1)c1ccccc1 [B9, 4-((nitrooxy)methyl)phenyl benzoate] the EC50 [1] was 1.93 µM, the EC50 [2] was 2.48 µM and the EC50 (caspases 3 and 7) was 0.23 µM. For the same compound, the EC50 [3] was 6.76 µM, the “ATP content in SW480, MelJuso, HCC44, SH2 and COLO704 cell lines” value [4] was “reduced ATP content” and the EC50 [5] was 79.5 µM. For the same compound, the EC50 [6] was 7.25 µM, the “effect on TP53-mutated CLL cells in comparison to para-NO-ASA (B1)” value (TP53-mutated CLL cells) was “more effective” and the “effect on CLL cells without a TP53 mutation” value [7] was “great effect”.
